Experimental data from patent US12285407B2, “Bis-indolylmethane derivatives and uses thereof” (The University of The West Indies, priority 2018, dated 2025).
Read-outs that look alike come from different tables or passages of the source.

What was measured:
Streptococcus pneumoniae [1] = test: Adjuvant broth microdilution (antibiotic MIC with SP-BIM at 50 μg/mL); type: cell-based; conditions: Streptococcus pneumoniae; Streptococcus pneumonia; antibiotic alone; Table 5; read-out: MIC of antibiotic, No compound
Escherichia coli [2] = test: microbe, parasite or virus in culture; type: cell-based; conditions: antibiotic alone, Table 6, read-out: MIC of antibiotic, No compound
Staphylococcus aureus = test: Checkerboard synergy (FICI) of antibiotics with SP-BIM; type: cell-based; conditions: Staphylococcus aureus, Staphylococcus aureus; for MIC: 24 h, antibiotic alone, read-out: MIC antibiotic only
Streptococcus pneumoniae [3] = test: as above; type: cell-based; conditions: Streptococcus pneumonia (title: Streptococcus pyogenes)
Bacillus cereus = test: as above; type: cell-based; conditions: for MIC: 24 h, antibiotic alone, read-out: MIC antibiotic only
Klebsiella pneumoniae = test: as above; type: cell-based; conditions: for MIC: 24 h, antibiotic alone, read-out: MIC antibiotic only
clinical strains of MRSA = test: Kirby Bauer disc diffusion susceptibility profile; type: cell-based, Staphylococcus aureus; conditions: for Zone of clearance: 35° C., 24 hours, average n=3; for Interpretive standard (resistant/susceptible): zones vs EUCAST breakpoints (Table 30)
Escherichia coli [4] = test: Checkerboard synergy (FICI) of antibiotics with SP-BIM; set-up: MIC SP-BIM 13 only / MIC in combination: Antibiotic: unit not given beside the values; conditions: for MIC: 24 h
Candida albicans = test: as above; set-up: MIC SP-BIM 13 only / MIC in combination: Antibiotic / MIC antibiotic only: unit not given beside the values
[5] = SP-BIM 9 in combination with the labelled antibiotic
[6] = SP-BIM 13 in combination with the labelled antibiotic
[7] = antibiotic in combination with SP-BIM 9
[8] = antibiotic in combination with SP-BIM 13
[9] = MIC of the antibiotic in combination with SP-BIM 13

CC[C@H]1OC(=O)[C@H](C)[C@@H](O[C@H]2C[C@@](C)(OC)[C@@H](O)[C@H](C)O2)[C@H](C)[C@@H](O[C@@H]2O[C@H](C)C[C@H](N(C)C)[C@H]2O)[C@](C)(O)C[C@@H](C)C(=O)[C@H](C)[C@@H](O)[C@]1(C)O [Erythromycin, erythromycin]
MIC (Streptococcus pneumoniae [1]): 4 µg/mL | MIC (Escherichia coli [2]): > 250 µg/mL | MIC (Staphylococcus aureus; SP-BIM 9 checkerboard): 0.1 µg/mL | MIC (Staphylococcus aureus; SP-BIM 13 checkerboard): 0.1 µg/mL | FIC of SP-BIM 9 (Staphylococcus aureus; [5]): 0.50 | FIC of SP-BIM 13 (Staphylococcus aureus; [6]): 0.5 | Interpretation (Staphylococcus aureus; antibiotic + SP-BIM 9): Additive (Additive: FICI>0.5-1.0) | Σ FIC (Staphylococcus aureus; antibiotic + SP-BIM 9): <0.70 | Interpretation (Staphylococcus aureus; antibiotic + SP-BIM 13): Additive (Additive: FICI>0.5-1.0) | Σ FIC (Staphylococcus aureus; antibiotic + SP-BIM 13): 0.7 | MIC in combination, Antibiotic (Staphylococcus aureus; [7]): 0.05 µg/mL | MIC in combination, Antibiotic (Staphylococcus aureus; [8]): 0.02 µg/mL | FIC of antibiotic (Staphylococcus aureus; in combination with SP-BIM 9): 0.20 | FIC of antibiotic (Staphylococcus aureus; in combination with SP-BIM 13): 0.2 | FIC of SP-BIM 9 (Streptococcus pneumoniae [3]; [5]): 1.00 | Interpretation (Streptococcus pneumoniae [3]; antibiotic + SP-BIM 9): Indifference | Σ FIC (Streptococcus pneumoniae [3]; antibiotic + SP-BIM 9): <2.00 | MIC in combination, Antibiotic (Streptococcus pneumoniae [3]; [7]): >250 µg/mL | FIC of antibiotic (Streptococcus pneumoniae [3]; in combination with SP-BIM 9): 1.00 | MIC (Streptococcus pneumoniae [3]; Streptococcus pneumoniae, 24 h, antibiotic alone, SP-BIM 9 checkerboard, read-out: MIC antibiotic only): > 250 µg/mL | MIC (Bacillus cereus; SP-BIM 9 checkerboard): 16 µg/mL | MIC (Bacillus cereus; SP-BIM 13 checkerboard): 16 µg/mL | MIC in combination, SP-BIM 9 (Bacillus cereus; SP-BIM 9 concentration in combination with the labelled antibiotic): >250 µg/mL | FIC of SP-BIM 9 (Bacillus cereus; [5]): 1 | FIC of SP-BIM 13 (Bacillus cereus; [6]): 0.5 | Interpretation (Bacillus cereus; antibiotic + SP-BIM 9): Indifferent (Indifferent: FICI>1.0-4.0) | Σ FIC (Bacillus cereus; antibiotic + SP-BIM 9): <2.0 | Interpretation (Bacillus cereus; antibiotic + SP-BIM 13): Synergy (Synergy: FICI≤0.5) | Σ FIC (Bacillus cereus; antibiotic + SP-BIM 13): 0.5 | MIC in combination, Antibiotic (Bacillus cereus; [7]): 16 µg/mL | MIC in combination, Antibiotic (Bacillus cereus; [8]): 0.05 µg/mL | FIC of antibiotic (Bacillus cereus; in combination with SP-BIM 9): 1 | FIC of antibiotic (Bacillus cereus; in combination with SP-BIM 13): 0.01 | MIC (Klebsiella pneumoniae; SP-BIM 9 checkerboard): 250 µg/mL | MIC (Klebsiella pneumoniae; SP-BIM 13 checkerboard): 16 µg/mL | FIC of SP-BIM 9 (Klebsiella pneumoniae; [5]): 0.5 | FIC of SP-BIM 13 (Klebsiella pneumoniae; [6]): 1.0 | Interpretation (Klebsiella pneumoniae; antibiotic + SP-BIM 9): Additive (Additive: FICI>0.5-1.0) | Σ FIC (Klebsiella pneumoniae; antibiotic + SP-BIM 9): <0.8 | Interpretation (Klebsiella pneumoniae; antibiotic + SP-BIM 13): Indifferent (Indifferent: FICI>1.0-4.0) | Σ FIC (Klebsiella pneumoniae; antibiotic + SP-BIM 13): <2.0 | MIC in combination, Antibiotic (Klebsiella pneumoniae; [7]): 63 µg/mL | MIC in combination, Antibiotic (Klebsiella pneumoniae; [8]): 16 µg/mL | FIC of antibiotic (Klebsiella pneumoniae; in combination with SP-BIM 9): 0.252 | FIC of antibiotic (Klebsiella pneumoniae; in combination with SP-BIM 13): 1.0 | Zone of clearance (clinical strains of MRSA; MRSA strain 1594): 19.0 mm | Interpretive standard (resistant/susceptible) (clinical strains of MRSA; MRSA strain 1594): S | Zone of clearance (clinical strains of MRSA; MRSA strain 1621): 21.5 mm | Interpretive standard (resistant/susceptible) (clinical strains of MRSA; MRSA strain 1621): S | Zone of clearance (clinical strains of MRSA; MRSA strain 5455): 20.5 mm | Interpretive standard (resistant/susceptible) (clinical strains of MRSA; MRSA strain 5455): S | Zone of clearance (clinical strains of MRSA; MRSA strain 5872): 0.0 mm | Interpretive standard (resistant/susceptible) (clinical strains of MRSA; MRSA strain 5872): R | Zone of clearance (clinical strains of MRSA; MRSA strain 7153): 18.5 mm | Interpretive standard (resistant/susceptible) (clinical strains of MRSA; MRSA strain 7153): S | Zone of clearance (clinical strains of MRSA; MRSA strain 7172): 17.5 mm | Interpretive standard (resistant/susceptible) (clinical strains of MRSA; MRSA strain 7172): S | Zone of clearance (clinical strains of MRSA; MRSA strain 7698): 17.5 mm | Interpretive standard (resistant/susceptible) (clinical strains of MRSA; MRSA strain 7698): S | Zone of clearance (clinical strains of MRSA; MRSA strain 10132): 9.0 mm | Interpretive standard (resistant/susceptible) (clinical strains of MRSA; MRSA strain 10132): R | MIC (Escherichia coli [4]; read-out: MIC antibiotic only, Escherichia coli, antibiotic alone): 16 µg/mL | MIC (Escherichia coli [4]; read-out: MIC antibiotic only, Escherichia coli, antibiotic alone, SP-BIM 9 checkerboard): 250 µg/mL | MIC in combination: Antibiotic (Escherichia coli [4]; [9]): 16 | FIC of SP-BIM 9 (Escherichia coli [4]; [5]): 1 | FIC of SP-BIM 13 (Escherichia coli [4]; [6]): 1.0 | Interpretation (Escherichia coli [4]; antibiotic + SP-BIM 9): Indifferent (Indifferent: FICI>1.0-4.0) | Σ FIC (Escherichia coli [4]; antibiotic + SP-BIM 9): <2.0 | Interpretation (Escherichia coli [4]; antibiotic + SP-BIM 13): Indifferent (Indifferent: FICI>1.0-4.0) | Σ FIC (Escherichia coli [4]; antibiotic + SP-BIM 13): <2.0 | MIC in combination, Antibiotic (Escherichia coli [4]; [7]): 250 µg/mL | FIC of antibiotic (Escherichia coli [4]; combination with SP-BIM 13): 1.0 | FIC of antibiotic (Escherichia coli [4]; in combination with SP-BIM 9): 1 | MIC (Candida albicans; 24 h, read-out: MIC antibiotic only): 16 µg/mL | MIC in combination: Antibiotic (Candida albicans; [9]): 1 | FIC of SP-BIM 13 (Candida albicans; [6]): 1.0 | Interpretation (Candida albicans; antibiotic + SP-BIM 13): Indifferent (Indifferent: FICI>1.0-4.0) | Σ FIC (Candida albicans; antibiotic + SP-BIM 13): <1.1 | FIC of antibiotic (Candida albicans; combination with SP-BIM 13): 0.1
